Assay [1] deals with Human alphaherpesvirus 3. Kind of assay: Anti-viral activity which is required for the inhibition of VZV (Varicella zoster virus ). The format is functional, organism-based.
The test system of a further assay is Human alphaherpesvirus 1. The assay can be described thus: Minimum inhibitory concentration which is active against herpes simplex virus type-1 (HSV-1); value ranges from 0.007-0.01 ug/mL. The format is functional.
The subject of assay [2] is Human alphaherpesvirus 3. The assay can be described thus: Minimum inhibitory concentration which is active against Varicella zoster virus (VZV); value ranges from 0.0002-0.003 ug/mL. The format is functional.
The test system of another assay is MRC5. Kind of assay: Inhibitory concentration which is active against Varicella zoster virus (VZV) in MRC-5 cells. It is filed as functional, cell-based. As to conditions: Homo sapiens.
The next assay has as its system CV-1. The assay can be described thus: Inhibitory concentration which is active against Varicella zoster virus (VZV) in CV-1 cells. The format is functional, cell-based, Cercopithecidae. The settings on record: Chlorocebus aethiops.

Values after ≈ are worked out from the molar mass of the structure shown.

With `O=c1[nH]c(=O)n([C@H]2C[C@H](O)[C@@H](CO)O2)cc1/C=C/Br` [BRIVUDINE], in the assay on Human alphaherpesvirus 3 [1], the IC50 (in general, the concentration that gives 50% inhibition) is 2.4 ng/mL (≈ 0.0072 µM). The MIC in the assay with Human alphaherpesvirus 1 is 7 ng/mL (≈ 0.021 µM); in the assay with Human alphaherpesvirus 3 [2], 0.2 ng/mL (≈ 0.0006 µM).

For the compound `O=c1[nH]c(=O)n(C2O[C@H](CO)[C@H](CO)[C@H]2O)cc1/C=C/Br` (stereo not given in full), the IC50 in the assay on MRC5 worked out at 15300 ng/mL (≈ 42.1 µM); in the assay on CV-1, 4400 ng/mL (≈ 12.1 µM).

For the origin of these results see ChEMBL document CHEMBL1124908, “Synthesis and antiviral activity of 3'-deoxy-3'-C-hydroxymethyl nucleosides” (J Med Chem, 1990).
